The structures appear in SMILES notation.

One experiment relates to LDL receptor expression. Briefly: Northern blotting of LDL receptor mRNA in HepG2 cells. Type of experiment: cell-based, human. How it is done: (§1) 5×10^5 cells were plated on day 0. On day 2, cells were refed with fresh medium. On day. 4, cells were either left untreated (0) or treated for the indicated times with SB202190 (2.5 μM) in medium containing 0.5% FBS. Total RNA was isolated and subjected to Northern blotting to determine amounts of LDL receptor, squalene synthase (SS) genes, and actin mRNAs. Autoradiographs were quantitated densitometrically. LDL receptor mRNA levels were normalized to actin mRNA levels. In the bottom panel, results are expressed as the fold induction by SB 202190 as compared with uninduced cells (set at 1). Values obtained are the averages of three separate experiments, with the standard deviations shown.
HepG2 cells were grown as described in FIG. 1. On day 4, medium was changed to either 10% LPDS alone or 10% LPDS supplemented with 25-hydroxycholesterol (2 μg/ml) and cholesterol (10 μg/ml), and after 2 hours, cells were treated with indicated concentrations of SB202190 for an additional 4 hours. Levels of LDL receptor and SS mRNAs were determined by Northern analysis and densitometry as described previously. RNA levels were normalized by comparison with levels of actin. Values obtained from cells cultured in the absence of sterols and SB202190 were set at 1. Values shown are the average of two different experiments.
Total RNA was subjected to Northern blot analysis, and the filter was hybridized with a ^32P-labeled LDL receptor probe. Values shown are the averages of two different experiments. […] Values obtained from the control cells grown in the absence of SB202190 or PD98059 were arbitrarily set at 1.
HepG2 cells were grown as described in FIG. 1. On day 4, cells cultured for 1 h in 0.5% FBS containing different amounts of cycloheximide (1 μg/ml, 2 μg/ml, and 5 μg/ml) were then incubated with SB202190 (2.5 μM) for an additional 4 h. LDL receptor and actin mRNA levels were analyzed by Northern blotting of total RNA. Values obtained from cells with no additions were arbitrarily set at 1. […] Results shown are representative of one experiment.
In FIG. 8A, HepG2 cells were pretreated for 30 minutes with the indicated concentration of the above inhibitors and then treated with […] SB202190 for an additional 4 hours. Total RNA was subjected to Northern blotting for measurement of LDL receptor mRNA levels.
Human hepatoma cell line HepG2 and its derivative HepG2-ΔRaf-1:ER cell line that stably expresses the ΔRaf-1:ER chimera were maintained as monolayer cultures in a humidified 5% CO2 atmosphere at 37° C. in Eagle's minimum essential medium (EMEM) (Bio Whittaker, Md.) supplemented with 10% fetal bovine serum (FBS) (Life Technologies Inc.), 2 mM L-glutamine, 20 units/ml penicillin and 20 μg/ml streptomycin sulphate.
Total RNA was isolated using TRIzol, and Northern blotting was done essentially as described earlier (43, 44). Briefly, 20 μg total cellular RNA was fractionated on 1% formaldehyde agarose gel and transferred to Zeta Probe membrane by capillary blotting. RNA blots were hybridized with LDL receptor and squalene synthase specific single-stranded M13 probes labeled with [α-^32P ]dCTP. Hybridized filters were washed and exposed to Kodak X-ray film. The relative intensities of specific bands were determined densitometrically within the linear range of the film on a model 300A laser densitometer (Molecular Dyanamics, Calif.) with Image Quant software. LDL receptor mRNA was normalized to squalene synthase (SS) (included in this study) or to α-actin (data not shown) mRNA level, and data for each point were plotted as the percentage of LDL receptor mRNA as compared to controls. […]

Another experiment concerns p42/44^MAPK. Briefly: Western blotting of phospho-p42/44MAPK in HeLa cells. As to conditions: SB202190 (2.5 μg/ml) in 0.5% FBS. It counts as cell-based. How it is done: Proteins were fractionated by SDS-PAGE with an 10% acrylamide separation gel, and the separated proteins were transferred to nitrocellulose, and processed as described previously (43, 44). Briefly, membranes were incubated in 20 mM Tris-HCl, pH 7.6, 137 mM NaCl, 0.2% v/v Tween-20 (Tris/NaCl/Tween-20) with 5% w/v non-fat dried milk for 1 h, washed in Tris/NaCl/Tween-20 (3×5 min), and incubated for 1 h with primary antibody in Tris/NaCl/Tween-20 containing 1% milk at room temperature for non phospho-specific antibodies and overnight at 4° C. for phospho-specific antibodies. The following dilutions were used for individual antibodies against different proteins: p42/44^MAPK (1:1600); phosphop-42/44^MAPK (1:1000); phosphop-46/54^JNK (1:1000); phospho-p38^MAPK (1:1600); phospho-MEK-1/2 (1:1000); MKP-1 (1:1500). After further washing in Tris/NaCl/Tween-20, membranes were incubated for 1 h with horseradish peroxidase-linked anti-IgG secondary antibody (Bio-Rad, diluted 1:5000), and immunoreactive proteins were detected by ECL as described by the supplier. Quantitative analyses of protein levels were performed by densitometric scanning of the autoradiograms, and are representative of 3 or more independent experiments.
On the technique in general: Immunoblotting shows a protein as a band on a membrane.

Experiment [1] deals with p38^MAPK γ- and δ-isoforms. The settings on record: cited from earlier work.
Another experiment relates to squalene synthase (SS). Briefly: Northern blotting of squalene synthase (SS) mRNA in HepG2 cells. Type of experiment: cell-based, human. As to conditions: SB202190 2.5 μM. How it is done: as §1, with “shown. […]” for “shown.”
Total RNA was isolated using TRIzol, and Northern blotting was done essentially as described earlier (43, 44). […] The relative intensities of specific bands were determined densitometrically within the linear range of the film on a model 300A laser densitometer (Molecular Dyanamics, Calif.) with Image Quant software. […]

As to `Oc1ccc(-c2nc(-c3ccc(F)cc3)c(-c3ccncc3)[nH]2)cc1` [SB202190, 4-(4-Fluorophenyl)-2-(4-hydroxyphenyl)-5-(4-pyridyl) 1H-imidazole], the “LDL receptor expression in the presence of sterols” value in the experiment with LDL receptor expression (HepG2, 10% LPDS with 25-hydroxycholesterol (2 μg/ml) and cholesterol (10 μg/ml), SB202190 4 hours) is on record as “slight increase in the suppressed levels of LDL receptor”. Moreover, in the experiment on LDL receptor expression (HepG2 cells), the “most effective concentration for LDL receptor induction” value stood at 2.5 µM. Also, in the experiment on LDL receptor expression (HepG2 cells, SB202190 2.5 μM), the “time after which plateau of LDL receptor expression was reached” value is on record as 8 h and the “time at which a significant increase in LDL receptor expression was apparent” value came out at 4 h. Besides, the “induction of LDL receptor expression” value in the experiment on LDL receptor expression (HepG2 cells, SB202190 alone) was 6-8 fold. Further, in the experiment with LDL receptor expression (HepG2 cells, inhibitor alone, 0.5% FBS), the “induction of LDL receptor expression (Northern blotting)” value is on record as “induces LDL receptor expression in a time-dependent manner”. The “p42/44MAPK activity in HeLa cells” value in the experiment with p42/44^MAPK is “induced p42/44^MAPK activity”. Also, the “inhibition of p38MAPK γ- and δ-isoforms” value in experiment [1] is recorded as “insensitive”. Further, the “effect on homologues p38MAPK γ (SAPK3) and SAPK4” value in experiment [1] (even at higher concentrations (100 μM)) is “without effect”. In the experiment on squalene synthase (SS), the “effect on expression of actin gene or sterol-sensitive gene SS” value was “without significantly affecting expression”.
